Experimental data reported in patent publication US20250051330A1, “HETEROCYCLIC COMPOUND HAVING ANTI-TUMOR ACTIVITY AND USE THEREOF” (CSPC Zhongqi Pharmaceutical Technology (Shijiazhuang) Co., …, priority 2021, published 2025).
Like-named read-outs stand apart in the source and are kept apart here.

Experiments:
[1] = target: T1, K-Ras^G12D and hSOS1 (Homo sapiens, UniProt Q07889); assay: K-Ras G12D and hSOS1 binding assay (HTRF); settings: inhibition of binding of K-Ras G12D to hSOS1, HTRF; read-out: Activity by IC50 (nM), SOS1 inhibitory activity
T1 construct: variant: G12D
T1 sequence (Q07889 whole entry, looked up, stated change not applied): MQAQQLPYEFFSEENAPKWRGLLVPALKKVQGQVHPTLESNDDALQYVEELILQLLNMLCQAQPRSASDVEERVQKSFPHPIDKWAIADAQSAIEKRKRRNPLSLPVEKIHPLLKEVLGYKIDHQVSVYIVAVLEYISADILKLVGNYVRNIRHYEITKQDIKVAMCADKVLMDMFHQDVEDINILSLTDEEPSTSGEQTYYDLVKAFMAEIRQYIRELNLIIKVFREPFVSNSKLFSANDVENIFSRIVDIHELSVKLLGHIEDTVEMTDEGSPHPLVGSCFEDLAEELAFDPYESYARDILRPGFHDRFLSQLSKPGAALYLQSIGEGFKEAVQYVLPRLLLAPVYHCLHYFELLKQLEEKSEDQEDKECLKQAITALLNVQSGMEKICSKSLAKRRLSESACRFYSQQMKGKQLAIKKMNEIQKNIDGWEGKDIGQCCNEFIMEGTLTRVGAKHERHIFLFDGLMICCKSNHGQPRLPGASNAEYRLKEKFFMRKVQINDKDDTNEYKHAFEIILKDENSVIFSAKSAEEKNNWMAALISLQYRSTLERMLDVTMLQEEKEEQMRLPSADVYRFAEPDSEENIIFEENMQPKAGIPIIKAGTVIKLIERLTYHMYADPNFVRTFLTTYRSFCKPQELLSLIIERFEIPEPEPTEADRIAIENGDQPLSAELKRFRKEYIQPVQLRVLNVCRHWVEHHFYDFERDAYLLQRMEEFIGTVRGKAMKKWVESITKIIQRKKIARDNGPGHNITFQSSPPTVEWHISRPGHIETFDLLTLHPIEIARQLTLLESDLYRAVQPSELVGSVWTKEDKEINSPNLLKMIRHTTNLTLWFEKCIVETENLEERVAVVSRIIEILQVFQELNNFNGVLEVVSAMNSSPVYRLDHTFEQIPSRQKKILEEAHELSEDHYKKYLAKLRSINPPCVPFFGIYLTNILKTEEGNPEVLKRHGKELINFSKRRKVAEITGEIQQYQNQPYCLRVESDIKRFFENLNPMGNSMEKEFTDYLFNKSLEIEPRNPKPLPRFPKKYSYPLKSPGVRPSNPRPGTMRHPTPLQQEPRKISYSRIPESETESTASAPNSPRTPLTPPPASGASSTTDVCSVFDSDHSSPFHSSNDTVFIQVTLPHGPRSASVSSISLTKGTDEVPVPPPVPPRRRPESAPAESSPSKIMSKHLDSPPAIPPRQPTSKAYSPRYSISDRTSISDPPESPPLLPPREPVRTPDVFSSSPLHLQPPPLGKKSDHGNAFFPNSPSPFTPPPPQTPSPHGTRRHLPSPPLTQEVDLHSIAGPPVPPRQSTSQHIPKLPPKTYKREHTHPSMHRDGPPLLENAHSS
Protocol: 1. K-Ras^G12D and hSOS1 Binding Assay
This assay could be used to examine the potency of the compounds to inhibit the protein-protein interaction between SOS1 and KRAS G12D. The binding of anti-GSK-Europium (FRET donor)-conjugated GST-KRas^G12D to anti-6His-XL665-conjugated His-tagged hSOS1 ([…]) was detected by homogeneous time-resolved fluorescence (HTRF), and the inhibitory effects of the compounds on the binding of K-Ras^G12D to hSOS1 were determined.
• Buffer (5 mM HEPES pH 7.4, 150 mM NaCl, 10 mM EDTA, 1 mM DTT, 0.05% BAS pH 7.0, 0.0025% 1gepal, and 100 mM KF); • GST-tagged hK-RasG12D (produced in-house); • His-tagged hSOS1 (produced in-house);
• 10 nM (final concentration) GST-hK-RasG12D and 2 nM (final concentration) anti-GSK-Europium in assay buffer were mixed, and set aside at room temperature.
• 20 nM (final concentration) His-tagged hSOS1 and 10 nM (final concentration) anti-6His-XL665 in assay buffer were mixed, and set aside at room temperature.
The test compound was dissolved in DMSO at a concentration of 100 times the assay concentration. 50 nL of the solution of compound was pipetted by Hummingbird liquid handler or Echo acoustic system to a black microassay plate.
All the experimental steps were conducted at 20° C. In the experiment, 2.5 μL of the liquid mixture of Ras was added to all wells of the assay plate using a Multidrop dispenser. After pre-incubation for 2 min, 2.5 μL of the liquid mixture of SOS was added to all the test wells other than the marginal wells, and 2.5 μL of the […], as a control, was added to the marginal wells. After incubation for 60 min, the assay plate passed through the HTRF module of Pheraster (excitation light: 337 nm, emission light 1: 620 nm, emission light 2: 665 nm).
The IC50 values were calculated and analyzed using a four-parameter logistic regression model.

[2] = tested on: NCI-H358 cells; assay: 3D cell proliferation inhibition assay (CellTiter-Glo 3D); type: cell-based; settings: Homo sapiens, read-out: Activity by IC50 (nM), inhibitory activity against NCI-H358 cell proliferation
Description: The cell proliferation inhibition assay was used to determine the abilities of compounds to inhibit the proliferation and growth of SOS1-mediated tumor cells at the in vitro 3D cellular level. The CellTiter-Glo® 3D Cell Viability Assay was employed.
• NCI-H358: KRAS G12C-mutated non-small cell lung cancer (NSCLC); • CellTiter-Glo® 3D Cell Viability Assay, Promega, G9683; • RPMI 1640 medium, Gibco, A10491-01; • FBS, Gibco, 10099141C.
• Day 1: NCI-H358 cells were passaged into a T75 cell culture flask. • Day 3: the medium was removed; the cells were rinsed once with DPBS, and digested at room temperature or at 37° C. using 2 mL of TrypLE™ Express Enzyme until the cells were detached; the resultant was added with 5 mL of fresh medium, and centrifuged at 1000 rpm for 5 min; the supernatant was discarded, and 5 mL of fresh medium was added to resuspend the cells; the cells were counted and then seeded at 40 μL/well in a 3D cell culture plate (Echo Qualified 384-Well Polypropylene Microplate 2.0, Clear, Flat Bottom).
• Day 1: the test compound was dissolved in DMSO to prepare a 10 mM stock solution; after a 1000-fold dilution with DMSO, the test compound solution was subjected to ten 3-fold serial dilutions starting from a concentration of 10 μM; 200 nL of the compound solution was added to the culture plate. • Day 8: CTG 3D reagent was added at 40 μL/well, and the signal was detected using Envision.
The IC50 values of the compounds were fitted using the Graphpad Prism 8 nonlinear regression equation.
[formula] • X: Log of cpd concentration; • Y: Percent inhibition (% inh).

[3] = 192 h, NCI-H358 (KRAS G12C-mutated NSCLC), 3D culture, CTG 3D read on Day 8

Row | IC50 [1] | IC50 [2, 3] | SMILES | IC50 ([2]; NCI-H358, 192 h)
1 | 10 to 50 nM | 100 to 500 nM | CC(=O)N1CC=C(c2cc3c(N[C@H](C)c4cccc(C(F)(F)F)c4)nc(C)nc3n3cnnc23)CC1 [Example 2] | –
2 | 10 to 50 nM | 100 to 500 nM | Cc1nc(N[C@H](C)c2cccc(C(F)(F)F)c2)c2cc(N3CCN(C)CC3)c3nncn3c2n1 [Example 3] | –
3 | 10 to 50 nM | 100 to 500 nM | Cc1nc(N[C@H](C)c2cccc(C(F)(F)F)c2)c2cc(N3CCOCC3)c3nncn3c2n1 [Example 4] | –
4 | – | – | Cc1nc(N[C@H](C)c2cc(N)cc(C(F)(F)F)c2)c2c(n1)N1CCN=C1C(c1ccn(C)c(=O)c1)=C2 [Example 6] | < 50 nM
5 | – | – | Cc1nc(N[C@H](C)c2cccc(C(F)F)c2F)c2c(n1)N1CCN=C1C(c1ccn(C)c(=O)c1)=C2 [Example 7] | < 50 nM
6 | 10 to 50 nM | – | Cc1nc(N[C@H](C)c2cccc(C(F)F)c2F)c2cc(-c3ccn(C)c(=O)c3)n3cnnc3c2n1 [Example 9] | –
7 | 10 to 50 nM | – | Cc1nc(N[C@H](C)c2cccc(C(F)(F)F)c2F)c2cc(-c3ccn(C)c(=O)c3)n3cnnc3c2n1 [Example 10] | –
8 | < 10 nM | 100 to 500 nM | Cc1nc(N[C@H](C)c2cccc(C(F)F)c2F)c2c(n1)N1CCN=C1C(c1ccc(=O)[nH]c1)=C2 [Example 12] | –
9 | 10 to 50 nM | < 50 nM | CC(=O)N1CC=C(C2=Cc3c(N[C@H](C)c4cccc(C(F)F)c4F)nc(C)nc3N3CCN=C23)CC1 [Example 31] | –
10 | 10 to 50 nM | 100 to 500 nM | Cc1nc(N[C@H](C)c2cccc(C(F)(F)F)c2)c2c(n1)N1CCN=C1C(c1ccc(=O)n(C)c1)=C2 [Example 65] | –
11 | < 10 nM | 100 to 500 nM | Cc1nc(N[C@H](C)c2cccc(C(F)(F)CO)c2)c2c(n1)N1CCN=C1C(c1ccc(=O)n(C)c1)=C2 [Example 71] | –
12 | – | 100 to 500 nM | Cc1nc(N[C@H](C)c2cccc(C(F)(F)F)c2)c2c(n1)N1CCN=C1C(c1cccnc1)=C2 [Example 94] | –
13 | – | 100 to 500 nM | Cc1nc(N[C@H](C)c2cccc(C(F)(F)F)c2)c2c(n1)N1CCN=C1C(c1cncc(C#N)c1)=C2 [Example 95] | –
14 | < 10 nM | 100 to 500 nM | Cc1nc(N[C@H](C)c2cccc(C(F)(F)F)c2)c2c(n1)N1CCN=C1C(c1ccc(=O)n(CCO)c1)=C2 [Example 97] | –
15 | < 10 nM | 100 to 500 nM | CCn1cc(C2=Cc3c(N[C@H](C)c4cccc(C(F)(F)F)c4)nc(C)nc3N3CCN=C23)ccc1=O [Example 98] | –
16 | 10 to 50 nM | 100 to 500 nM | Cc1nc(N[C@H](C)c2cccc(C(F)(F)F)c2)c2c(n1)N1CCN=C1C(c1cccn(C)c1=O)=C2 [Example 99] | –
17 | – | 100 to 500 nM | COCCn1cc(C2=Cc3c(N[C@H](C)c4cccc(C(F)(F)F)c4)nc(C)nc3N3CCN=C23)ccc1=O [Example 100] | –
18 | – | 100 to 500 nM | Cc1nc(N[C@H](C)c2cccc(C(F)(F)F)c2)c2c(n1)N1CCN=C1C(c1ccc(=O)n(CC(F)F)c1)=C2 [Example 101] | –
19 | – | 100 to 500 nM | Cc1nc(N[C@H](C)c2cccc(C(F)(F)F)c2)c2c(n1)N1CCN=C1C(c1cccc(=O)n1C)=C2 [Example 102] | –

Row | IC50 [1] | IC50 [2, 3] | SMILES | IC50 ([2]; NCI-H358, 192 h)
20 | – | 100 to 500 nM | Cc1nc(N[C@H](C)c2cccc(C(F)(F)F)c2)c2c(n1)N1CCN=C1C(c1cnc(=O)n(C)c1)=C2 [Example 103] | –
21 | – | 100 to 500 nM | Cc1nc(N[C@H](C)c2cccc(C(F)(F)F)c2)c2c(n1)N1CCN=C1C(c1cn(C)c(=O)n(C)c1=O)=C2 [Example 104] | –
22 | – | 100 to 500 nM | Cc1nc(N[C@H](C)c2cccc(C(F)(F)F)c2)c2c(n1)N1CCN=C1C(c1ccc(=O)n(C(C)C)c1)=C2 [Example 105] | –
23 | – | 100 to 500 nM | Cc1nc(N[C@H](C)c2cccc(C(F)(F)F)c2)c2c(n1)N1CCN=C1C(c1cc(C)c(=O)n(C)c1)=C2 [Example 106] | –
24 | – | 100 to 500 nM | Cc1nc(N[C@H](C)c2cccc(C(F)(F)F)c2)c2c(n1)N1CCN=C1C(c1ccn(CCO)c(=O)c1)=C2 [Example 107] | –
25 | – | 50 to 100 nM | Cc1nc(N[C@H](C)c2cccc(C(F)(F)F)c2)c2c(n1)N1CCN=C1C(c1ccn(C3COC3)c(=O)c1)=C2 [Example 108] | –
26 | 10 to 50 nM | 50 to 100 nM | [2H]C([2H])([2H])n1ccc(C2=Cc3c(N[C@H](C)c4cccc(C(F)(F)F)c4)nc(C)nc3N3CCN=C23)cc1=O [Example 109] | –
27 | – | 100 to 500 nM | C[C@@H](Nc1nc(C2CC2)nc2c1C=C(c1ccn(C)c(=O)c1)C1=NCCN12)c1cccc(C(F)(F)F)c1 [Example 110] | –
28 | – | 100 to 500 nM | C[C@@H](Nc1nc(C2CC2)nc2c1C=C(c1ccc(=O)n(C)c1)C1=NCCN12)c1cccc(C(F)(F)F)c1 [Example 111] | –
29 | – | 100 to 500 nM | Cc1nc(N[C@H](C)c2cccc(C(F)(F)F)c2)c2c(n1)N1CCN=C1C(c1ccn(CF)c(=O)c1)=C2 [Example 113] | –
30 | – | 100 to 500 nM | Cc1nc(N[C@H](C)c2cc(C(F)(F)F)ccn2)c2c(n1)N1CCN=C1C(c1ccn(C)c(=O)c1)=C2 [Example 117] | –
31 | < 10 nM | 100 to 500 nM | Cc1nc(N[C@H](C)c2cccc(C(F)(F)CO)c2)c2c(n1)N1CCN=C1C(c1ccn(C)c(=O)c1)=C2 [Example 118] | –
32 | – | 50 to 100 nM | Cc1nc(N[C@H](C)c2cccc(C(F)(F)C(C)(C)O)c2F)c2c(n1)N1CCN=C1C(c1ccc(=O)n(C)c1)=C2 [Example 119] | –
33 | – | 100 to 500 nM | Cc1nc(N[C@H](C)c2cccc3c2OCC3(F)F)c2c(n1)N1CCN=C1C(c1ccc(=O)n(C)c1)=C2 [Example 120] | –
34 | – | 100 to 500 nM | Cc1nc(N[C@H](C)c2cccc3c2OCC3(F)F)c2c(n1)N1CCN=C1C(c1ccn(C)c(=O)c1)=C2 [Example 121] | –
35 | < 10 nM | 50 to 100 nM | Cc1nc(N[C@H](C)c2cccc(C(F)F)c2F)c2c(n1)N1CCN=C1C(C1=CCN(S(C)(=O)=O)CC1)=C2 [Example 122] | –
36 | < 10 nM | 50 to 100 nM | Cc1nc(N[C@H](C)c2cccc(C(F)F)c2F)c2c(n1)N1CCN=C1C(C1=CCN(C(=O)CC#N)CC1)=C2 [Example 123] | –
37 | < 10 nM | 50 to 100 nM | Cc1nc(N[C@H](C)c2cccc(C(F)F)c2F)c2c(n1)N1CCN=C1C(C1=CCN(C(=O)C3(F)CC3)CC1)=C2 [Example 124] | –
38 | – | 50 to 100 nM | Cc1nc(N[C@H](C)c2cccc(C(F)F)c2F)c2c(n1)N1CCN=C1C(C1(O)CCN(C(=O)C3(F)CC3)CC1)=C2 [Example 125] | –
